Results taken from ChEMBL document CHEMBL2311455, “Combining QSAR classification models for predictive modeling of human monoamine oxidase inhibitors” (Eur J Med Chem, 2013).

How the values were obtained:
Homo sapiens = organism: Homo sapiens; test: Selectivity index, difference in pIC50 for human recombinant MAOB and pIC50 for human recombinant MAOA
[1] = target: T1, Amine oxidase [flavin-containing] A (Homo sapiens, UniProt P21397); test: Inhibition of human recombinant MAOA
T1 sequence (P21397 whole entry): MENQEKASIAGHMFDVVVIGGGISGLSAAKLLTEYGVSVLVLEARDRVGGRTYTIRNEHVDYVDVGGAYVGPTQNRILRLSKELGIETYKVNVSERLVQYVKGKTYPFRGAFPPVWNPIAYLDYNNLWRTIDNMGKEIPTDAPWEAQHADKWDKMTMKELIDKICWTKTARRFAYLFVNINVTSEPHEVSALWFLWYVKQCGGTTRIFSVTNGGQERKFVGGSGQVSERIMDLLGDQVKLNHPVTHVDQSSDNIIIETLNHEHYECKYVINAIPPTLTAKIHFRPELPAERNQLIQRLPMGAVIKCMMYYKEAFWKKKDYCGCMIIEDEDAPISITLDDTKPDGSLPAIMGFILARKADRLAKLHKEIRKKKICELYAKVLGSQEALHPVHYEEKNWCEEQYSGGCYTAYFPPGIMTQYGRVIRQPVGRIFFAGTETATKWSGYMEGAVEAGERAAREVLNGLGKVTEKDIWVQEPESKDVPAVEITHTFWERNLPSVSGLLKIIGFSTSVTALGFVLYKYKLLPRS

[2] = target: T2, Amine oxidase [flavin-containing] B (Homo sapiens, UniProt P27338); test: Inhibition of human recombinant MAOB
T2 sequence (P27338 whole entry): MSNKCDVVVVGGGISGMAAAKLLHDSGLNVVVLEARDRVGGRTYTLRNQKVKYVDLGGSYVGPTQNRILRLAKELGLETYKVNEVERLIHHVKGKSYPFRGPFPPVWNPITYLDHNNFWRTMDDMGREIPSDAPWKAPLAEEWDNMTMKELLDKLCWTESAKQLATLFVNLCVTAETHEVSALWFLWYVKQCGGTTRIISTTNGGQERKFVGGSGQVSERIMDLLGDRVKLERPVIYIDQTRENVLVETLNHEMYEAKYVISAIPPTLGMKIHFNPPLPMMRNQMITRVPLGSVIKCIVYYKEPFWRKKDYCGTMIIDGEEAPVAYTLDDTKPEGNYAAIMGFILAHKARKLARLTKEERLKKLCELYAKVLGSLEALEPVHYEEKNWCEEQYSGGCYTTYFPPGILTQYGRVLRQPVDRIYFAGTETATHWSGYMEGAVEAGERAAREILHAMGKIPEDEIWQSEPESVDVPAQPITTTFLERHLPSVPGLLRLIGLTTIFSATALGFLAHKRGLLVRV

pSI (Homo sapiens) | IC50 [1] [µM] | IC50 [2] [µM] | Compound
< -1 | > 100 | > 1000 | O=C(O)c1cc(=O)c2cc(Cl)ccc2o1
-1.15 |  |  | O=C(Nc1ccc(O)c(O)c1)c1cc(=O)c2ccccc2o1
> 0.41 | > 100 | 38.9 | CCOC(=O)c1cc(=O)c2cc(Cl)ccc2o1
> 1.72 | > 100 | 1.91 | CCOC(=O)c1coc2ccccc2c1=O
0 | > 100 | > 100 | CCOC(=O)c1cc(=O)c2ccccc2o1
0 | > 100 | > 100 | O=c1cc(CO)oc2ccccc12
> 0.42 | > 100 | 38 | O=c1c(CO)coc2ccccc12
> 0.45 | > 100 | 35.5 | CCCOC(=O)c1cc(=O)c2ccccc2o1
< -1 | > 100 | > 1000 | O=C(O)c1coc2ccc(Cl)cc2c1=O
0 | > 100 | > 100 | CN(C(=O)c1cc(=O)c2ccccc2o1)c1ccccc1
> 1.25 | > 100 | 5.62 | CCCOC(=O)c1coc2ccccc2c1=O
